pKi: −log10 of the molar value. Calls of active or inactive are those of the source. The calls are words filed in the database; no cut-off is given here.
How the values were obtained:
D(2) dopamine receptor = D(2) dopamine receptor (Rattus norvegicus, UniProt P61169); test: (§1) Displacement of [3H]-raclopride from D2 receptor of Wistar rat striatal membranes after 1 hr by liquid scintillation counting; format: cell membranes, Membrane; conditions: for pKi: read-out: Ki; for Ki: read-out: pKi (converted)
Sequence of D(2) dopamine receptor (P61169 whole entry): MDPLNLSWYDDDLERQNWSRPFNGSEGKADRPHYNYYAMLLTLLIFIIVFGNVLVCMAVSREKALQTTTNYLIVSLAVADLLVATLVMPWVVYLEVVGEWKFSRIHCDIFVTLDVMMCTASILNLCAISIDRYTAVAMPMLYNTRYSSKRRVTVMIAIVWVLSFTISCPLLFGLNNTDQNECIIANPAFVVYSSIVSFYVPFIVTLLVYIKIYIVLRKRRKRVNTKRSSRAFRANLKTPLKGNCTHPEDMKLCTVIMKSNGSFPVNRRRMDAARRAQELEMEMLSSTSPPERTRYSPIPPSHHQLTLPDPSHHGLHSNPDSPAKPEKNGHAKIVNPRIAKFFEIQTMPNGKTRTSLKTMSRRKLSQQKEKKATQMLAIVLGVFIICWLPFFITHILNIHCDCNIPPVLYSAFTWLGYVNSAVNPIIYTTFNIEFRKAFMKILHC

D(1A) dopamine receptor = D(1A) dopamine receptor (Rattus norvegicus, UniProt P18901); test: Displacement of [3H]-SCH23390 from D1 receptor of Wistar rat striatal membranes after 1 hr by liquid scintillation counting; format: cell membranes, Membrane; conditions: for pKi: read-out: Ki; for Ki: read-out: pKi (converted)
Sequence of D(1A) dopamine receptor (P18901 whole entry): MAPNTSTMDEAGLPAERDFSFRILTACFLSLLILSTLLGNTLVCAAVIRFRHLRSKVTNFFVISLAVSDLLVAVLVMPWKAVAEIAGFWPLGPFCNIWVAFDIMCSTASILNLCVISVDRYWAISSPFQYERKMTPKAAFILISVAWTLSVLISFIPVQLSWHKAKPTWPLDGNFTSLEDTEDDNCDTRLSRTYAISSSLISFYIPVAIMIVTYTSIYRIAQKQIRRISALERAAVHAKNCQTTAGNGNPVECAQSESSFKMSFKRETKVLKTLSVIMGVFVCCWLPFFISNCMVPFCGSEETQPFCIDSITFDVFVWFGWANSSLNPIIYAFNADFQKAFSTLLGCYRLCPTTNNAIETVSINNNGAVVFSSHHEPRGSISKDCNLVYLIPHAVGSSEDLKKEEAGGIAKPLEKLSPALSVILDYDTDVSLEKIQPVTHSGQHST

Rattus norvegicus = species on record: Rattus norvegicus; test: Selectivity ratio of Ki for D1 receptor of Wistar rat striatal membranes to Ki for D2 receptor of Wistar rat striatal membranes; format: cell membranes; conditions: Membrane
[1] = target: D(2) dopamine receptor (Rattus norvegicus) (UniProt P61169); test: as §1; format: cell membranes; conditions: Membrane
Sequence of D(2) dopamine receptor (Rattus norvegicus) (P61169 whole entry): as the sequence (P61169 whole entry) above

Row | Compound | Activity [1] | pKi (D(2) dopamine receptor) | Ki (D(2) dopamine receptor) [nM] | pKi (D(1A) dopamine receptor) | Ki (D(1A) dopamine receptor) [nM] | Ratio Ki (Rattus norvegicus)
1 | COc1cc(CCN(C)C)c2ccc3ccccc3c2c1OC |  | 6.49 | 321 | 5.53 | 2920 | 9.1
2 | COc1cc2c3c(c1OC)-c1ccccc1CC3N(C)CC2 (racemic) [(+/-)-NUCIFERINE] |  | 6.68 | 173 | 6.20 | 587 | 
3 | CN1CCc2cc3c(c4c2C1Cc1ccccc1-4)OCO3 (racemic) [ROEMERINE] |  | 7.08 |  | 6.42 | 324 | 4.4
4 | CN(C)CCc1cc(O)c(O)c2c1ccc1ccccc12 |  | 7.31 | 38.5 | 5.11 | 6190 | 157
5 | CN(C)CCc1cc2c(c3c1ccc1ccccc13)OCO2 |  | 7.18 | 64.7 | 5.20 | 4140 | 96
6 | COc1cc2c3c(c1OC)-c1ccccc1CC3[N+](C)(C)CC2 (configuration not stated) | inactive |  |  |  |  | 
7 | CN1CCc2cc(O)c(O)c3c2C1Cc1ccccc1-3 (configuration not stated) |  | 7.35 | 38.6 | 6.40 | 397 | 8.9

Second part, led by results:

Row | Activity [1] | Compound | pKi (D(2) dopamine receptor) | Ki (D(2) dopamine receptor) [nM] | pKi (D(1A) dopamine receptor) | Ki (D(1A) dopamine receptor) [nM] | Ratio Ki (Rattus norvegicus)
8 | inactive | C[N+]1(C)CCc2cc3c(c4c2C1Cc1ccccc1-4)OCO3 (racemic) |  |  |  |  | 
9 | inactive | COc1cc(CC[N+](C)(C)C)c2ccc3ccccc3c2c1OC |  |  |  |  | 
10 | inactive | C[N+](C)(C)CCc1cc2c(c3c1ccc1ccccc13)OCO2 |  |  |  |  | 

— ChEMBL document CHEMBL2413048, “3,4-Dihydroxy- and 3,4-methylenedioxy- phenanthrene-type alkaloids with high selectivity for D2 dopamine receptor” (Bioorg Med Chem Lett, 2013)
